# Results published in patent US4757153A, “Sulfide, sulfinyl and sulfone dipeptide amides” (G. D. Searle & Co., priority 1986, dated 1988).
# Legend:
# [1] = test system: phenylbenzoquinone-induced writhing in mice; test: Writhing assay (phenylbenzoquinone-induced writhing); type: in vivo, mouse; conditions: 30 min before phenylbenzoquinone i.p., active = writhes significantly less than saline group; for Writhing Mouse Oral: screening dose 10 mg/kg oral (intragastric); for Writhing Mouse Subc.: screening dose 10 mg/kg subcutaneous
# Procedure: Writhing assay. Male Charles River albino mice (CD-1/HAM/1LR) weighing between 20 and 30 grams were used. Thirty minutes after subcutaneous or intragastric administration of the test compound (0.1 ml/10 gram body weight), 0.025% (w/v) phenylbenzoquinone was injected intraperitoneally (0.1 ml/10 gram body weight). Five minutes later, each mouse was placed in a large glass beaker and the number of writhes that occurred in the subsequent ten minutes is counted. A writhe consisted of dorsoflexion of the back, extension of the hindlimbs, and strong contraction of the abdominal musculature. The test compound was considered to have produced analgesia in a mouse if the number of writhes elicited by phenylbenzoquinone was equal to or less than one-half the median number of writhes recorded for the saline-treated group that day. The results were expressed as the number of mice (out of a possible ten) in which the test compound produced analgesia. […] If the initial test dose of 10 mg/kg inhibited writhing in greater than 6 of 10 mice, the effect of additional doses was evaluated and an ED50 value was calculated using a maximum likelihood function.
# [2] = target: opiate receptors isolated from rat brain; test: Opiate Binding Assay (displacement of 3H-Naloxone); conditions: concentration inhibiting specific binding of 1 nM 3H-Naloxone to rat brain receptor membranes by 50%
# Procedure: Opiate Binding Assay. The test compounds were evaluated for their ability to displace the binding of ^3 H-Naloxone to opiate receptors isolated from rat brain. Male rats [Crl: CD(SD)BR] obtained from Charles River Laboratories (Portage, MI) were sacrificed by cervical dislocation. A purified homogenate of receptor membranes was prepared from the brains according to the method described by Chang and Cuatrecasas. (K.-J. Chang and P. Cuatrecasas. Multiple Opiate Receptors: Enkephalins And Morphine Bind To Receptors Of Different Specificity. J. Biol. Chem. 254, 2610-2618 (1979).) The brains were homogenized in 10 volumes of 0.32M sucrose and centrifuged twice at 6,000xg for 15 minutes. Following centrifugation of the supernatants at 40,000xg for 30 minutes, the pellets were resuspended in 5 mM tris-HCl, and centrifuged at 6,000. The supernatant was centrifuged at 40,000xg. The resuspension in 5 mM Tris-HCl was repeated twice. The final pellet was resuspended in 2 volumes of 50 mM tris HCl (pH 7.4). The homogenate was assayed for protein content according to the method of Itzhaki and Gill (R. F. Itzhaki and D. M. Gill. A Micro-Biuret Method for Estimating Proteins. Anal. Biochem. 9, 401-410 (1964)).
# The binding of the test compounds to the receptor membrane preparation was measured using a modification of the method of Pert and Snyder (C. B. Pert and S. H. Synder. Properties of Opiate-Receptor Binding in Rat Brain. Proc. Natl. Acad. Sci. 70, 2243-2247 (1973)). The receptor assay was run using final concentrations of 1 nM ^3 H-Naloxone and of tissue homogenate (0.5 mg/ml of homogenate protein. Levorphanol (1×10^-5 M) was used as the displacer for non-specific binding. Final concentration of the test compounds was 10^-5 M. The assay was run in 0.05M tris HCl (pH 7.4). Total assay volume was 1.0 ml.
# Samples were incubated at 25° C. for 60 min., filtered over Whatman GF/C glass fiber filters, and rinsed twice with 4 ml washes of ice-cold buffer. The filters were air-dried at 50° C. for 30 min. After drying 10 mls of PCS was added to the vial and the radioactivity determined using a Tracor Analytic Mark III liquid scintillation counter with a counting efficiency of 48%.
# The IC50 values, the concentration of the test compounds which inhibited ^3 H-Naloxone specific binding to the opiate receptor by 50%, were obtained from log-logit plots of concentration-response curves.
# [3] = test system: brain opiate receptor sites; conditions: partially purified brain opiate receptor sites; Bradberry et al. 1976; cited from earlier work
# rat = conditions: injected directly into the brain of the rat; Belluzi et al. 1976; cited from earlier work
Compound,Writhing Mouse Oral [1],Writhing Mouse Subc. [1],IC50 [2],binding to brain opiate receptor sites [3],analgesic activity (rat)
"2,6-dimethyl-L-tyrosyl-α-(methylsulfinyl)-N-(3-phenylpropyl)-D-α-aminobutanamide, monohydrochloride [Example 16]",Active,Active,0.4 nM,–,–
"L-tyrosyl-N-(3-phenylpropyl)-D-methioninamide, monohydrochloride [Example 4]",Inactive,Inactive,16 nM,–,–
methionine enkephalin,–,–,–,binds stereospecifically,"weak, fleeting analgesic activity"
"L-tyrosyl-γ-(methylsulfonyl)-N-(3-phenylpropyl)-DL-α-aminobutanamide, monohydrochloride [Example 8]",Inactive,Inactive,9.6 nM,–,–
"2,6-dimethyl-D-tyrosyl-N-(3-phenylpropyl)-D-methioninamide, monohydrochloride [Example 15]",Inactive,Inactive,160 nM,–,–
"2,6-dimethyl-L-tyrosyl-N-(3-phenylpropyl)-D-methioninamide, monohydrochloride [Example 14]",Active,Active,0.2 nM,–,–
"Cc1cc(O)cc(C)c1C[C@@H](N)C(=O)N[C@H](CC[S+](C)[O-])C(=O)NCCCc1ccccc1.Cl (stereo partly drawn) [Example 17, 2,6-dimethyl-D-tyrosyl-γ-(methylsulfinyl)-N-(3-phenylpropyl)-D-α-aminobutanamide, monohydrochloride]",Inactive,Inactive,96 nM,–,–
